The supplement of paper PMC10307832

Experiments:
Test in all cases: relative viability (nuclei count vs DMSO), 5 days (fraction); higher = more cells survive
[1] = compound: Cn1c(Nc2ccc(C(F)(F)F)cc2)nc2cc(Oc3ccnc(-c4ncc(C(F)(F)F)[nH]4)c3)ccc21 [RAF265] + O=C(c1cc(Cc2n[nH]c(=O)c3ccccc23)ccc1F)N1CCN(C(=O)C2CC2)CC1 [Olaparib] (partner 8 µM)
Summary of the method: (§1)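 Relative viability is defined as nuclei in treated wells over nuclei in vehicle wells. Duplicate plates were run and medians reported. Lung cancer cell lines in 1536-well plates were dosed by pin tool one day after seeding, with one drug or with a fixed anchor-drug dose plus five library-drug doses (not always all listed) in √10 steps, and nuclei were counted after 5 days.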

[2] = compound: C1=CC=C2C(=C1)C=CC(=C2SSC3=C(C=CC4=CC=CC=C43)O)O [IPA-3] + O=C(CCCCCCC(=O)Nc1ccccc1)NO [Vorinostat] (partner 1 µM)
Summary of the method: as §1

[3] = compound: C1=CC=C2C(=C1)C=CC(=C2SSC3=C(C=CC4=CC=CC=C43)O)O [IPA-3] + C[C@@H](Oc1cc(-c2cnn(C3CCNCC3)c2)cnc1N)c1c(Cl)ccc(F)c1Cl [Crizotinib] (partner 1 µM)
Summary of the method: as §1

[4] = compound: Cn1c(Nc2ccc(C(F)(F)F)cc2)nc2cc(Oc3ccnc(-c4ncc(C(F)(F)F)[nH]4)c3)ccc21 [RAF265] + CC1(C)CCC(c2ccc(Cl)cc2)=C(CN2CCN(c3ccc(C(=O)NS(=O)(=O)c4ccc(N[C@H](CCN5CCOCC5)CSc5ccccc5)c(S(=O)(=O)C(F)(F)F)c4)cc3)CC2)C1 [Navitoclax] (partner 0.5 µM)
Summary of the method: as §1

| Cell Line | relative viability ([1]; first compound 0.01 µM) | relative viability ([1]; first compound 0.03162 µM) | relative viability ([1]; first compound 0.1 µM) | relative viability ([1]; first compound 0.3162 µM) | relative viability ([1]; first compound 1 µM) | relative viability ([2]; first compound 0.2 µM) | relative viability ([2]; first compound 0.6325 µM) | relative viability ([2]; first compound 2 µM) | relative viability ([2]; first compound 6.325 µM) | relative viability ([2]; first compound 20 µM) | relative viability ([3]; first compound 0.2 µM) | relative viability ([3]; first compound 0.6325 µM) | relative viability ([3]; first compound 2 µM) | relative viability ([3]; first compound 6.325 µM) | relative viability ([3]; first compound 20 µM) | relative viability ([4]; first compound 0.01 µM) | relative viability ([4]; first compound 0.03162 µM) | relative viability ([4]; first compound 0.1 µM) | relative viability ([4]; first compound 0.3162 µM) | relative viability ([4]; first compound 1 µM) |
| --- | --- | --- | --- | --- | --- | --- | --- | --- | --- | --- | --- | --- | --- | --- | --- | --- | --- | --- | --- | --- |
| NCI-H522 | 0.791 | 0.695 | 0.737 | 0.728 | 0.57 | 0.879 | 0.897 | 0.854 | 0.894 | 1.06 |  |  |  |  |  |  |  |  |  |  |
| NCI-H1944 | 0.43 | 0.44 | 0.385 | 0.361 | 0.26 | 0.674 | 0.492 | 0.479 | 0.574 | 0.527 | 1.21 | 0.995 | 1.11 | 1.17 | 1.07 | 1.11 | 1.06 | 1.15 | 0.798 | 0.86 |
| NCI-H727 | 0.701 | 0.685 | 0.708 | 0.593 | 0.547 | 1.25 | 1.01 | 1.27 | 1.07 | 1.2 | 0.937 | 0.765 | 0.818 | 0.699 | 0.792 | 0.531 | 0.539 | 0.512 | 0.363 | 0.229 |
| A549 | 0.41 | 0.367 | 0.404 | 0.0957 | 0.0721 |  |  |  |  |  | 0.886 | 0.76 | 0.745 | 0.819 | 0.89 | 1.31 | 1.19 | 1.06 | 0.669 | 0.624 |
| NCI-H1648 | 1.43 | 0.891 | 0.537 | 0.78 | 0.279 | 0.876 | 0.484 | 0.589 | 0.34 | 0.399 |  |  |  |  |  |  |  |  |  |  |
| Calu-6 | 0.6 | 0.591 | 0.528 | 0.442 | 0.255 |  |  |  |  |  | 1.06 | 0.75 | 0.81 | 0.795 | 0.966 | 0.753 | 0.588 | 0.569 | 0.304 | 0.221 |
| LCLC-103H | 0.759 | 0.717 | 0.75 | 0.595 | 0.444 | 0.849 | 0.807 | 0.805 | 0.865 | 0.867 | 1.07 | 0.947 | 1.03 | 1.15 | 1.1 |  |  |  |  |  |
| NCI-H1792 | 0.474 | 0.291 | 0.279 | 0.262 | 0.0641 |  |  |  |  |  | 1.14 | 1.01 | 1.01 | 0.996 | 1.16 | 0.637 | 0.597 | 0.641 | 0.541 | 0.459 |
| NCI-H1563 |  |  |  |  |  |  |  |  |  |  | 0.899 | 0.891 | 0.938 | 1.11 | 1.02 |  |  |  |  |  |
| NCI-H661 | 0.775 | 0.667 | 0.724 | 0.605 | 0.464 | 0.796 | 0.764 | 0.865 | 0.732 | 0.778 | 1.06 | 0.847 | 1.08 | 0.988 | 1.03 |  |  |  |  |  |
